# Experimental data from patent US20250275995A1, “NICOTINAMIDE RIBOSIDE DOSAGE REGIMEN FOR TREATING PARKINSON'S DISEASE” (VESTLANDETS INNOVASJONSSELSKAP AS (VIS), priority 2022, published 2025).
# What was measured:
# [1] = tested on: individuals with newly diagnosed, drug-naïve PD; assay: NADPARK phase I trial: tolerability of NR therapy (1000 mg per day, 30 days) in PD; type: in vivo, human
# Experimental: (§1) The present inventors completed a phase I randomized, double blinded trial, aiming to assess the tolerability, cerebral bioavailability and molecular effects of NR therapy in PD. A total of 30 individuals with newly diagnosed, drug-naïve PD were randomized to NR 500 mg×2/day or placebo for 30 days (Cell Metab. 2022 Mar. 1; 34(3):396-407.e6).
# NR is well-tolerated. […] NR achieves brain penetration. […] While a significant NR-induced increase in cerebral NAD levels was detected at the group level, this effect was not uniform at the individual level.
# Parkinson's Disease (PD) = assay: NADPARK: clinical severity by MDS-UPDRS; type: in vivo, human
# Experimental: as §1
# NR is associated with clinical improvement of PD. NR at 1000 mg daily was associated with a significant decrease in the total MDS-UPDRS (I-III) score between visits (mean decrease: 2.33±2.35; paired t-test: p=0.017).
# NAD metabolome = assay: NR-SAFE: NAD and glutathione metabolites in frozen whole blood (NADMed assay); type: in vivo, human
# Experimental: Analysis was carried out by NADMed (Helsinki, Finland; www.nadmed.com). NAD and glutathione metabolites were extracted from frozen blood in a single step using a proprietary extraction procedure, and each metabolite was measured individually using optimized cyclic enzymatic assays with colorimetric detection.
# adult humans = details: cited from earlier work
# blood NAD levels = details: cited from earlier work
# cerebral NAD levels = assay: NADPARK: cerebral NAD levels by 31P-MRS; type: in vivo, human
# Experimental: A-C: 31P-MRS was performed at baseline (v1) and after 30 days of treatment (v2). A: exemplary data from one subject showing voxel position. Spectra were acquired for each grid position. B (top): average processed spectra from multiple voxels (black) and the model fit (red). B (bottom): the model fit is composed of the convolution of all spectral contributions of a simulated dataset fitted to the experimental data. […] PCr: phosphocreatine. C: comparison of cerebral NAD levels in the placebo (PL) and NR groups at baseline (v1) and visit-2 (v2). […] Individual subjects are indicated by dots. Connecting lines show the change between v1 and v2. The black points and lines show the mean of each group. […] D: FDG-PET data from all subjects in the NR-group, showing the mean NR-Related Pattern (NRRP, top panel), PD-related pattern (PRDP, middle panel), and the overlap of the two (bottom panel). NR partially ameliorates the striatal and thalamic hypermetabolism of PD. E: Between visit changes showing increased NRRP expression in the NR versus the placebo group. […]
# NR is well-tolerated. […] While a significant NR-induced increase in cerebral NAD levels was detected at the group level, this effect was not uniform at the individual level.
# Cerebral NAD levels, such as NAD/α-ATP-α molar ratios, can be calculated by using ^31P spectroscopy data from magnetic resonance imaging and spectroscopy (MRI/S) e.g., as shown in FIG. 1B. […] For instance, an anatomical T1-weighted image with the following sequence parameters can be acquired to aid positioning of the ^31P-imaging slab: MPRAGE 3D T1-weighted sagittal volume, TE/TR/TI=2.26 ms/2.4 s/900 ms, acquisition matrix=256×256×192, FOV=256×256×192 mm3, 200 Hz/px readout bandwidth, flip angle=8 degrees and total acquisition duration of 5.6 minutes. ^31P spectroscopy data can then be acquired using a 3D chemical shift imaging (CSI) FID sequence with WALTZ4 1H decoupling and continuous wave nuclear Overhauser effect (NOE) enhancement (Peeters et al., NMR Biomed. 2019; 34: e4169). […]
# [2] = NADMed assay, V1 to V7, 3000 mg NR daily
compound,measurement,setting,value
"NC(=O)c1ccc[n+]([C@@H]2O[C@H](CO)[C@@H](O)[C@H]2O)c1 [NR, nicotinamide riboside]",serum homocysteine levels,"[1]; NR 1000 mg daily, Phase I study",no change in serum homocysteine levels
same,"compliance, tolerability, toxicity","[1]; NR 1000 mg per day, 30 days, PD","excellent compliance, tolerability and no signs of toxicity or adverse side effects"
same,mean decrease in total MDS-UPDRS (I-III) score between visits,"Parkinson's Disease (PD); NR 1000 mg daily, as stated in first sentence",2.33±2.35
same,change in MDS-UPDRS (total or subsections I-III),"Parkinson's Disease (PD); NR 1000 mg daily, whole NR group",No significant change
same,mean decrease in MDS-UPDRS,Parkinson's Disease (PD); nine individuals showing >10% increase in cerebral NAD levels,2.33±2.35
same,mean decrease in MDS-UPDRS,Parkinson's Disease (PD); subgroup of ten NR-recipients with increased cerebral NAD levels,1.9±2.78
same,increase in whole blood NAD^+ levels,"NAD metabolome; 3000 mg NR daily, 4 weeks",~3.7 fold
same,"increase in whole blood NAD^+ levels, range","NAD metabolome; 3000 mg NR daily, 4 weeks, range across individuals",1.8-5.8 fold
same,increase in blood NAD^+ levels (maximum),"NAD metabolome; 3000 mg NR daily, 4 weeks, summary statement",up to 5 fold
same,whole blood GSH and GSSG,NAD metabolome; [2],remained unchanged
same,whole blood NADH level,NAD metabolome; [2],marked increase
same,whole blood NADP^+ and total NADP levels,NAD metabolome; [2],increase in NADP^+ and total NADP levels
same,whole blood NADP^+/NADPH ratio,NAD metabolome; [2],trend towards increased NADP^+/NADPH ratio
same,whole blood NAD^+ level,NAD metabolome; [2],marked increase
same,whole blood NAD^+/NADH ratio,NAD metabolome; [2],overall elevated NAD^+/NADH ratio
same,"triglycerides, total cholesterol and LDL","adult humans; NR at lower doses, e.g., in combination with pterostilbene","mild increase in triglycerides, total cholesterol and LDL"
same,tolerability in adult humans,adult humans; doses up to at least 2000 mg daily,well tolerated with no evidence of toxicity
same,blood NAD levels in a 24h-period after intake,blood NAD levels; 1000 mg NR after increasing NR doses twice daily for nine days,stably increased
same,blood NAD levels 23.8 h after intake,"blood NAD levels; 1000 mg NR, single subject","decreased, but not yet to baseline"
same,time of peak blood NAD levels after intake,"blood NAD levels; 1000 mg NR, single subject",7.7 h
same,increase of blood NAD^+ levels,"blood NAD levels; 1000 mg or 2000 mg NR daily, reported studies",1.37-2.8 fold
same,increase in cerebral NAD-levels,"cerebral NAD levels; 1000 mg NR, treatment group, mean (SD=20%)",38%
same,patients with no evidence of cerebral NAD response,"cerebral NAD levels; NR 1000 mg per day, 30 days",three
same,change in cerebral NAD levels (31P-MRS),"cerebral NAD levels; NR 1000 mg per day, baseline vs 30 days, NR group",highly significant (paired t-test: P=0.016) increase in cerebral NAD levels
